# From patent publication US20260130933A1, “PHARMACEUTICAL COMPOSITION FOR PREVENTION OR TREATMENT OF NEPHROPATHY AND/OR DIABETES MELLITUS, COMPRISING ENAVOGLIFLOZIN” (DAEWOONG PHARMACEUTICAL CO., LTD., priority 2022, published 2026)
# Assay: Example 2: phase 3 trial, enavogliflozin 0.3 mg vs dapagliflozin 10 mg once a day for 24 weeks added to metformin in patients with type 2 diabetes (same efficacy, exploratory and safety endpoints)
# Type: in vivo, human
# Conditions: for HDL-C change from baseline, ANCOVA LS mean (SE) / HDL-C change from baseline, Mean (SD) / HDL-C change from baseline, Median / HDL-C, Mean (SD) / HDL-C, Median / LDL-C change from baseline, ANCOVA LS mean (SE) / LDL-C change from baseline, Mean (SD) / LDL-C change from baseline, Median / LDL-C, Mean (SD) / LDL-C, Median / Triglycerides change from baseline, ANCOVA LS mean (SE) / Triglycerides change from baseline, Mean (SD) / Triglycerides change from baseline, Median / Triglycerides, Mean (SD) / Triglycerides, Median: mPPS1; for Diastolic blood pressure change from baseline, ANCOVA LS mean (SE) / Diastolic blood pressure change from baseline, Mean (SD) / Diastolic blood pressure change from baseline, Median / Diastolic blood pressure, Mean (SD) / Diastolic blood pressure, Median / Systolic blood pressure change from baseline, ANCOVA LS mean (SE) / Systolic blood pressure change from baseline, Mean (SD) / Systolic blood pressure change from baseline, Median / Systolic blood pressure, Mean (SD) / Systolic blood pressure, Median: mPPS2
# Description: Subjects who met the inclusion/exclusion criteria were administered a placebo of the clinical trial drug under single-blind (subject blinding) conditions during a 2-week run-in period while continuing to receive metformin. […] The randomized subjects were administered two tablets of the clinical trial drug for each administration group once a day, and then visited the institution at weeks 6, 12, 18, and 24 during the 24-week administration period to conduct efficacy and safety evaluations.
# • 1. Change in HbA1c at week 24 after administration of clinical trial drug compared to Visit 2 (randomization)
# • 1. Change in HbA1c at each time point of weeks 6, 12, and 18 after administration of clinical trial drug compared to Visit 2 (randomization) • 2. Change in FPG at each time point of weeks 6, 12, 18, and 24 after administration of clinical trial drug compared to Visit 2 (randomization) • 3. Proportion of subjects achieving HbA1c<7% at each time point of weeks 6, 12, 18, and 24 after administration of clinical trial drug • 4. Proportion of subjects achieving HbA1c<6.5% at each time point of weeks 6, 12, 18, and 24 after administration of clinical trial drug • 5. Proportion of subjects achieving therapeutic response (HbA1c change (HbA1c at Visit 2-HbA1c at each evaluation time point)>0.5% or HbA1c<7% at each evaluation time point compared to Visit 2 (randomization)) at each time point of weeks 6, 12, 18 and 24 after administration of clinical trial drug
# • 1. Change in fasting c-peptide at each time point of weeks 6, 12, 18, and 24 after administration of clinical trial drug compared to Visit 2 (randomization) • 2. Change in body weight at each time point of weeks 6, 12, 18, and 24 after administration of clinical trial drug compared to Visit 2 (randomization) • 3. Change in fasting lipid concentration (total cholesterol, LDL-C, HDL-C, and triglycerides) at each time point of weeks 6, 12, 18, and 24 after administration of clinical trial drug compared to Visit 2 (randomization) • 4. Changes in systolic or diastolic blood pressure at each time point of weeks 6, 12, 18, and 24 after administration of clinical trial drug compared to Visit 2 (randomization) • 5. Changes in β-cell function and insulin resistance measured by HOMA-β and HOMA-IR at each time point of weeks 6, 12, 18, and 24 after administration of clinical trial drug compared to Visit 2 (randomization) • 6. Changes in renal function-related indicators (UACR, UGCR) measured by UACR at each time point of weeks 6, 12, 18, and 24 after administration of clinical trial drug compared to Visit 2 (randomization) • 7. Changes in obesity-related indicators (adiponectin, leptin) at each time point of weeks 6, 12, 18, and 24 after administration of clinical trial drug compared to Visit 2 (randomization)
compound,measurement,setting,value
"CCOc1ccc(Cc2cc([C@@H]3O[C@H](CO)[C@@H](O)[C@H](O)[C@H]3O)ccc2Cl)cc1 [Dapagliflozin, reference compound]","Leptin change from baseline, ANCOVA LS mean (SE)","Week 12, PPS",-2.70 ng/mL
same,"Leptin change from baseline, Mean (SD)","Week 12, PPS",-2.70 ng/mL
same,"Leptin change from baseline, Median","Week 12, PPS",-1.94 ng/mL
same,"Leptin, Mean (SD)","Week 12, PPS",9.07 ng/mL
same,"Leptin, Median","Week 12, PPS",6.05 ng/mL
same,"UACR change from baseline, ANCOVA LS mean (SE)","Week 12, PPS",-3.38 g/kg
same,"UACR change from baseline, Mean (SD)","Week 12, PPS",-8380 mg/kg
same,"UACR change from baseline, Median","Week 12, PPS",-1.80 g/kg
same,"UACR, Mean (SD)","Week 12, PPS",49420 mg/kg
same,"UACR, Median","Week 12, PPS",11.95 g/kg
same,"UGCR change from baseline, ANCOVA LS mean (SE)","Week 12, PPS",45.14 mg/mg
same,"UGCR change from baseline, Mean (SD)","Week 12, PPS",43.59 mg/mg
same,"UGCR change from baseline, Median","Week 12, PPS",40.62 mg/mg
same,"UGCR, Mean (SD)","Week 12, PPS",45.57 mg/mg
same,"UGCR, Median","Week 12, PPS",40.89 mg/mg
same,"HDL-C change from baseline, ANCOVA LS mean (SE)",Week 12,2.25(0.62) mg/dL
same,"HDL-C change from baseline, Mean (SD)",Week 12,2.65(5.61) mg/dL
same,"HDL-C change from baseline, Median",Week 12,2.00 mg/dL
same,"HDL-C, Mean (SD)",Week 12,49.29(9.21) mg/dL
same,"HDL-C, Median",Week 12,49.00 mg/dL
same,"LDL-C change from baseline, ANCOVA LS mean (SE)",Week 12,0.56(1.73) mg/dL
same,"LDL-C change from baseline, Mean (SD)",Week 12,1.33(16.02) mg/dL
same,"LDL-C change from baseline, Median",Week 12,2.00 mg/dL
same,"LDL-C, Mean (SD)",Week 12,77.54(25.39) mg/dL
same,"LDL-C, Median",Week 12,77.00 mg/dL
same,"Triglycerides change from baseline, ANCOVA LS mean (SE)",Week 12,−10.10(4.92) mg/dL
same,"Triglycerides change from baseline, Mean (SD)",Week 12,−14.35(70.12) mg/dL
same,"Triglycerides change from baseline, Median",Week 12,-6.00 mg/dL
same,"Triglycerides, Mean (SD)",Week 12,119.06(50.67) mg/dL
same,"Triglycerides, Median",Week 12,104.00 mg/dL
same,"Diastolic blood pressure change from baseline, ANCOVA LS mean (SE)",Week 12,−4.35 mmHg
same,"Diastolic blood pressure change from baseline, Mean (SD)",Week 12,−4.06 mmHg
same,"Diastolic blood pressure change from baseline, Median",Week 12,−3.00 mmHg
same,"Diastolic blood pressure, Mean (SD)",Week 12,71.86 mmHg
same,"Diastolic blood pressure, Median",Week 12,72.00 mmHg
same,"Systolic blood pressure change from baseline, ANCOVA LS mean (SE)",Week 12,−6.12(1.07) mmHg
same,"Systolic blood pressure change from baseline, Mean (SD)",Week 12,−5.86(11.46) mmHg
same,"Systolic blood pressure change from baseline, Median",Week 12,−6.00 mmHg
same,"Systolic blood pressure, Mean (SD)",Week 12,121.46(12.64) mmHg
same,"Systolic blood pressure, Median",Week 12,123.00 mmHg
same,"Adiponectin change from baseline, ANCOVA LS mean (SE)","Week 18, PPS",1.29 µg/mL
same,"Adiponectin change from baseline, Mean (SD)","Week 18, PPS",1.28 µg/mL
same,"Adiponectin change from baseline, Median","Week 18, PPS",0.73 ng/mL
same,"Adiponectin, Mean (SD)","Week 18, PPS",7.98 µg/mL
same,"Adiponectin, Median","Week 18, PPS",7.08 µg/mL
same,"HOMA-IR change from baseline, ANCOVA LS mean (SE)","Week 18, PPS",−1.47
same,"HOMA-IR change from baseline, Mean (SD)","Week 18, PPS",−1.61
same,"HOMA-IR change from baseline, Median","Week 18, PPS",−1.07
same,"HOMA-IR, Mean (SD)","Week 18, PPS",2.28
same,"HOMA-IR, Median","Week 18, PPS",2.07
same,"HOMA-β change from baseline, ANCOVA LS mean (SE)","Week 18, PPS",13.49
same,"HOMA-β change from baseline, Mean (SD)","Week 18, PPS",13.46
same,"HOMA-β change from baseline, Median","Week 18, PPS",9.80
same,"HOMA-β, Mean (SD)","Week 18, PPS",58.55
same,"HOMA-β, Median","Week 18, PPS",51.80
same,"Leptin change from baseline, ANCOVA LS mean (SE)","Week 18, PPS",-1.23 ng/mL
same,"Leptin change from baseline, Mean (SD)","Week 18, PPS",-1.20 ng/mL
same,"Leptin change from baseline, Median","Week 18, PPS",-1.37 ng/mL
same,"Leptin, Mean (SD)","Week 18, PPS",10.72 ng/mL
same,"Leptin, Median","Week 18, PPS",6.16 ng/mL
same,"UACR change from baseline, ANCOVA LS mean (SE)","Week 18, PPS",-12.95 g/kg
same,"UACR change from baseline, Mean (SD)","Week 18, PPS",-20540 mg/kg
same,"UACR change from baseline, Median","Week 18, PPS",-1.75 g/kg
same,"UACR, Mean (SD)","Week 18, PPS",37260 mg/kg
same,"UACR, Median","Week 18, PPS",11.60 g/kg
same,"UGCR change from baseline, ANCOVA LS mean (SE)","Week 18, PPS",42.72 mg/mg
same,"UGCR change from baseline, Mean (SD)","Week 18, PPS",41.06 mg/mg
same,"UGCR change from baseline, Median","Week 18, PPS",40.72 mg/mg
same,"UGCR, Mean (SD)","Week 18, PPS",43.00 mg/mg
same,"UGCR, Median","Week 18, PPS",40.86 mg/mg
same,"HDL-C change from baseline, ANCOVA LS mean (SE)",Week 18,3.08(0.67) mg/dL
same,"HDL-C change from baseline, Mean (SD)",Week 18,3.17(5.82) mg/dL
same,"HDL-C change from baseline, Median",Week 18,2.00 mg/dL
same,"HDL-C, Mean (SD)",Week 18,49.93(9.16) mg/dL
same,"HDL-C, Median",Week 18,49.00 mg/dL
same,"LDL-C change from baseline, ANCOVA LS mean (SE)",Week 18,2.58(1.89) mg/dL
same,"LDL-C change from baseline, Mean (SD)",Week 18,3.27(20.01) mg/dL
same,"LDL-C change from baseline, Median",Week 18,3.00 mg/dL
same,"LDL-C, Mean (SD)",Week 18,79.71(26.69) mg/dL
same,"LDL-C, Median",Week 18,80.00 mg/dL
same,"Triglycerides change from baseline, ANCOVA LS mean (SE)",Week 18,1.88(6.04) mg/dL
same,"Triglycerides change from baseline, Mean (SD)",Week 18,−4.10(62.62) mg/dL
same,"Triglycerides change from baseline, Median",Week 18,1.00 mg/dL
same,"Triglycerides, Mean (SD)",Week 18,130.88(70.92) mg/dL
same,"Triglycerides, Median",Week 18,110.00 mg/dL
same,"Diastolic blood pressure change from baseline, ANCOVA LS mean (SE)",Week 18,−4.10 mmHg
same,"Diastolic blood pressure change from baseline, Mean (SD)",Week 18,−3.94 mmHg
same,"Diastolic blood pressure change from baseline, Median",Week 18,−2.50 mmHg
same,"Diastolic blood pressure, Mean (SD)",Week 18,72.08 mmHg
same,"Diastolic blood pressure, Median",Week 18,71.00 mmHg
same,"Systolic blood pressure change from baseline, ANCOVA LS mean (SE)",Week 18,−5.97(1.15) mmHg
same,"Systolic blood pressure change from baseline, Mean (SD)",Week 18,−5.43(12.97) mmHg
same,"Systolic blood pressure change from baseline, Median",Week 18,−5.00 mmHg
same,"Systolic blood pressure, Mean (SD)",Week 18,122.27(12.91) mmHg
same,"Systolic blood pressure, Median",Week 18,122.00 mmHg
same,"Adiponectin change from baseline, ANCOVA LS mean (SE)","Week 24, PPS",1.69 µg/mL
same,"Adiponectin change from baseline, Mean (SD)","Week 24, PPS",1.72 µg/mL
same,"Adiponectin change from baseline, Median","Week 24, PPS",1.06 ng/mL
same,"Adiponectin, Mean (SD)","Week 24, PPS",8.35 µg/mL
same,"Adiponectin, Median","Week 24, PPS",7.19 µg/mL
same,"HOMA-IR change from baseline, ANCOVA LS mean (SE)","Week 24, PPS",−1.31
same,"HOMA-IR change from baseline, Mean (SD)","Week 24, PPS",−1.47
same,"HOMA-IR change from baseline, Median","Week 24, PPS",−1.17
same,"HOMA-IR, Mean (SD)","Week 24, PPS",2.39
